Laboratory results taken from paper PMC4193996 (Journal of Experimental & Clinical Cancer Research : CR, 2014).

Columns and labels:
[1] = tested on: h-Tel quadruplex DNA, 5'-biotin-d[AG3(T2AG3)3] (DNA, G4) AGGGTTAGGGTTAGGGTTAGGG; test: SPR
[2] = tested on: hairpin duplex, 5'-biotin-CGA3T3C(CT)2GA3T3CG (DNA, hairpin) CGAAATTTCCTCTGAAATTTCG; test: SPR
[3] = target: T1, human recombinant M2 muscarinic receptor (Homo sapiens, UniProt P08172); test: M2 muscarinic receptor inhibition assay; type: binding; conditions: read-out: Muscarinic (M2) % inh @1 μM
T1 sequence (P08172 1-466): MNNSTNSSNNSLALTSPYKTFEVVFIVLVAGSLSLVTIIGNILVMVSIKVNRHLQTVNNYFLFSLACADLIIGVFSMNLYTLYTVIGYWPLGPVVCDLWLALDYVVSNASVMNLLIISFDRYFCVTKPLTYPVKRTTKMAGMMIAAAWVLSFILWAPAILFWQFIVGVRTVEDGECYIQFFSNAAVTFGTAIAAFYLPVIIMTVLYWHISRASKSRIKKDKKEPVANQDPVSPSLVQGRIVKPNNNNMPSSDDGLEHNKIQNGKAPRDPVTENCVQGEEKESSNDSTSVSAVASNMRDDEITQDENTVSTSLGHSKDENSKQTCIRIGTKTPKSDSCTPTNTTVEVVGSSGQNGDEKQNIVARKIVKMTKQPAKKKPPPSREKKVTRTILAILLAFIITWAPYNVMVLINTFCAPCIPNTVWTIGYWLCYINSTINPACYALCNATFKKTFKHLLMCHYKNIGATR
Procedure: (§1) hEGR study and the M2 and the β2 receptor inhibition assay were performed as previously reported.
(§2) The new G-quadruplex ligands were designed in an attempt to obtain molecules with improved toxicological and on-target profiles, but maintaining the same favorable chemical and pharmacological features of the lead compound 1. With the aim of selecting the best variants, a step by step comparative analysis of their off- and on-target properties was performed. Initially the new molecules were tested for their ability to interact with and inhibit the human recombinant β2 adrenergic and M2 muscarinic receptors, and to reduce the hERG tail current in a patch clamp assay. […] Therefore, we might expect that the new ligands would impair cardiac functionality to a lesser extent than the lead molecule does.

[4] = target: human recombinant β2 adrenergic receptor (Homo sapiens, UniProt P07550); test: β2 adrenergic receptor inhibition assay; type: binding; conditions: read-out: β2 adrenergic % inh @1 μM
human recombinant β2 adrenergic receptor, sequence (P07550 whole entry): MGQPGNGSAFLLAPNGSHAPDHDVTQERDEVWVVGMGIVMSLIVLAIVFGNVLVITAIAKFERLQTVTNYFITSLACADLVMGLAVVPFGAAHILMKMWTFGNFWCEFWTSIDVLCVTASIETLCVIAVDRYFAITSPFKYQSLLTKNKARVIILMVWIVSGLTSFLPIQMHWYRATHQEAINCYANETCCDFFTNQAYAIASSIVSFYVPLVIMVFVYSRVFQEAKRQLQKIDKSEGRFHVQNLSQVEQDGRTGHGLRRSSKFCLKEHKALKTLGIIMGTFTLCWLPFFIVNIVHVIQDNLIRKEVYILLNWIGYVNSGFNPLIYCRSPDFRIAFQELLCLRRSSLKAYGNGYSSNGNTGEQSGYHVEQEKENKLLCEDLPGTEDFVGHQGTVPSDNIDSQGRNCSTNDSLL
Procedure: as §1, §2

hERG = hERG (Homo sapiens, UniProt Q12809); test: hERG tail current inhibition in a patch clamp assay; type: cell-based; conditions: read-out: hERG % inh @10 μM
hERG, sequence (Q12809 whole entry): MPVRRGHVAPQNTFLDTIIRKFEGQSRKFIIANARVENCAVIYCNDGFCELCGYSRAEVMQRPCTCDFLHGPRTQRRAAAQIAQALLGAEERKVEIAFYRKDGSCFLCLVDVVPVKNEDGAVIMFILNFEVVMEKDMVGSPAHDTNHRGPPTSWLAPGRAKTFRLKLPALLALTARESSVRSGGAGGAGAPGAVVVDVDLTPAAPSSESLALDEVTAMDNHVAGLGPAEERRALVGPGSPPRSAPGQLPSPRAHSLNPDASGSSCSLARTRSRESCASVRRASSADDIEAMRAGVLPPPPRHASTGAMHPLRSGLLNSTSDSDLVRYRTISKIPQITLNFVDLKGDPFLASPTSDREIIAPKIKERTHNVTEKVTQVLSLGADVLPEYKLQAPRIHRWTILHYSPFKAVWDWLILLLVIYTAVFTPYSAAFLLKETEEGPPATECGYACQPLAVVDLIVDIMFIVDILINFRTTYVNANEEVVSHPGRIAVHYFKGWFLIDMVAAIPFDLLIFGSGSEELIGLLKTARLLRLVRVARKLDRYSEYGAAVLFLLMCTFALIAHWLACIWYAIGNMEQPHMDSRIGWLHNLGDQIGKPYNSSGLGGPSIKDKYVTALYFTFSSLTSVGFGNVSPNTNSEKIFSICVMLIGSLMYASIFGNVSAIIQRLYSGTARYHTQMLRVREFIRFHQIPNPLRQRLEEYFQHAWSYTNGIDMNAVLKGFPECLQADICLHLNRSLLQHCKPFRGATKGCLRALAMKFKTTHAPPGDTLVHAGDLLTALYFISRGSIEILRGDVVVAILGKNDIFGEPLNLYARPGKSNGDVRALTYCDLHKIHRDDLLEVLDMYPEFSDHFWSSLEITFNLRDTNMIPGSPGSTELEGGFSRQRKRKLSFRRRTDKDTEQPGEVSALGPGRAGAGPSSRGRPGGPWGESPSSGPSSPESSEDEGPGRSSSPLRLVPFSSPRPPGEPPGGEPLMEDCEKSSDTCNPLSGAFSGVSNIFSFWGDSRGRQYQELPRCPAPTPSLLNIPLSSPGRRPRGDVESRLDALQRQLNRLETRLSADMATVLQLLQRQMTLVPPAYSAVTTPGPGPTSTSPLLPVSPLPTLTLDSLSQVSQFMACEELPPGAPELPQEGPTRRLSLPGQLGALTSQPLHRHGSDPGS
Procedure: as §1, §2

[5] = tested on: h-Tel quadruplex DNA sequence 5'-d[AGGG(TTAGGG)3]-3'; test: SPR binding to quadruplex DNA; design: species or system human; conditions: for Quadruplex/duplex ratio: quadruplex vs duplex affinity
Procedure: (§3) Oligonucleotides 5’-biotin-d [AG3 (T2AG3)3] quadruplex and 5’-biotin-CGA3T3C(CT)2GA3T3CG were purchased from Midland Certified Reagent Company (Midland, TX). Purification of DNA, preparation of solutions, collection of data, and analysis of results were conducted according to methods adopted in an earlier study.
(§4) This technique takes advantage of the refractive index change elicits by the binding of the drug with the h-Tel quadruplex DNA sequence 5’-d[AGGG(TTAGGG)3]-3’ or an alternating hairpin duplex sequence immobilized on a sensor chip surface.

[6] = tested on: alternating hairpin duplex sequence 5'-biotin-CGA3T3C(CT)2GA3T3CG; test: SPR binding to duplex DNA
Procedure: as §3, §4

[7] = tested on: human colon cancer cell line HT-29; test: MTT proliferation assay, HT-29; type: cell-based; conditions: 96 hours
Procedure: (§5) Normal WI-38 diploid human lung fibroblasts and the human colorectal adenocarcinoma HT29 cells were obtained from American Type Culture Collection (Manassas, VA, USA). BJ fibroblasts expressing hTERT and SV40 early region (BJ-EHLT) were obtained as previously reported. Cells were grown in Dulbecco Modified Eagle Medium (D-MEM, Invitrogen Carlsbad, CA, USA) supplemented with 10% fetal calf serum, 2 mM L-glutamin and antibiotics.
(§6) MTT (3-(4,5-Dimethylthiazol-2-yl)-2,5-diphenyltetrazolium Bromide) assay was performed in treated and untreated cells for 96 hours. Cells were incubated with MTT solution (Sigma-Aldrich), and the purple formazan crystals were dissolved in isopropanol. Optical densities (OD) at 540 nm was determined on microplate reader.
(§7) Firstly, we investigated if they were able to efficiently promote growth inhibition of tumor cells without affecting the survival of normal cells in vitro. In Table 1 we report for each compound the concentration causing 50% of growth inhibition (GI50) calculated by performing a proliferation assay in the human colon cancer cell line HT-29 or in the human ‘normal’ lung WI-38 cells. […] On the basis of results described so far, we decided to exclude from the further analysis ligand 10 for its high value of hERG inhibition (95%) (Table 1).

[8] = tested on: human 'normal' lung WI-38 cells; test: MTT proliferation assay, WI-38; type: cell-based; conditions: for Ratio PMX WI38/HT29: GI50 WI-38 / GI50 HT-29; for GI50: Homo sapiens, WI-38, MTT, 96 hours
Procedure: as §5, §6, §7

BJ-EHLT fibroblasts [9] = test: γ-H2AX/TRF1 colocalization (TIFs, telomere uncapping); type: cell-based, human; conditions: for mean TIFs per nucleus / telomere dysfunction (TIF formation), in words: 24 hrs; for telomere dysfunction (TIF formation), in words: 0.1 and 0.5 μM
Procedure: (§8) Cells were fixed in 2% formaldehyde and permeabilized in 0.25% Triton X100 in PBS for 5 min at room temperature. For immunolabeling, cells were incubated with primary antibody, then washed in PBS and incubated with the secondary antibodies. The following primary antibodies were used: pAb and mAb anti-TRF1(Abcam Ltd.; Cambridge UK); mAb (Upstate, Lake Placid, NY) and pAb anti-γH2AX (Abcam); mAb anti-PCNA (Sigma Chemicals, Milano, Italy). The following secondary antibody were used: TRITC conjugated Goat anti Rabbit, FITC conjugated Goat anti Mouse (Jackson ImmunoResearch Europe Ltd., Suffolk, UK). Fluorescence signals were recorded by using a Leica DMIRE2 microscope equipped with a Leica DFC 350FX camera and elaborated by a Leica FW4000 deconvolution software (Leica, Solms, Germany). This system permits to focus single planes inside the cell generating 3D highresolution images. For quantitative analysis of γH2AX positivity, 200 cells on triplicate slices were scored. For TIFs analysis, in each nucleus a single plane was analyzed and at least 50 nuclei per sample were scored.
Unfortunately, we were not able to test compounds 4, 5 and the 0,5 μM dose of 3 as they were fluorescent in both red and green channels. […] To ascertain whether γ-H2AX was phosphorylated in response to dysfunctional telomeres, double immunofluorescence experiments were processed by confocal microscopy. We observed that some of the γ-H2AX foci induced by G4-ligands colocalized with TRF1, a good marker for interphase telomeres, forming the so-called telomere dysfunction-induced foci (TIFs) (Figure 2B).
Figure 2 DNA damage activation at telomeres. BJ-EHLT fibroblasts were treated for 24 hrs with compound 1 and the indicated ligands at the doses 0.1 (light-grey bars) and 0.5 μM (dark-grey bars). Cells were processed for immunofluorescence (IF) using antibodies against γ-H2AX and TRF1 to mark DNA damage and telomeres respectively. Percentages of γ-H2AX- (A) and TIF-positive (B) treated and untreated cells are reported in the histograms. (C) Mean number of TIFs in the indicated samples. Cells with four or more γ-H2AX/TRF1 foci were scored as TIF positive. Error bars indicate the standard deviation. (D) Representative images of IF of untreated and 1, 3, 6 and 8-treated BJ-EHLT cells. Enlarged views of TIFs are reported on the right of the merged images. The images were acquired with a Leica Deconvolution microscope (magnification 100x). (E) Cells treated as in (A) were processed for IF of γ-H2AX and PCNA to mark replicating cells. Percentage of γ-H2AX+/PCNA- or γ-H2AX+/PCNA + nuclei in the indicated samples are reported in the histograms.

BJ-EHLT fibroblasts [10] = test: γ-H2AX/PCNA co-immunostaining (replication-dependent DNA damage); type: cell-based, human; conditions: 24 hrs
Procedure: as §8
Figure 2 DNA damage activation at telomeres. BJ-EHLT fibroblasts were treated for 24 hrs with compound 1 and the indicated ligands at the doses 0.1 (light-grey bars) and 0.5 μM (dark-grey bars). […] Cells with four or more γ-H2AX/TRF1 foci were scored as TIF positive. […]

Row | Compound | K [1] [M⁻¹] | K [2] [M⁻¹] | inhibition at 1 µM [3] [%] | inhibition at 1 µM [4] [%] | Quadruplex DNA affinity K [5] | Quadruplex/duplex ratio [5] | Duplex DNA affinity K [6] | GI50 [7] [nM] | inhibition at 10 µM (hERG) [%] | Ratio PMX WI38/HT29 [8] | GI50 [8] [µM] | mean TIFs per nucleus (BJ-EHLT fibroblasts [9]) | percentage of cells with more than four γ-H2AX/TRF1 colocalizations (TIF-positive) (BJ-EHLT fibroblasts [9]; 24 hrs, 0,1 μM) | telomere dysfunction (TIF formation), in words (BJ-EHLT fibroblasts [9]) | γ-H2AX foci formation relative to PCNA status (BJ-EHLT fibroblasts [10]) | percentage of cells with more than four γ-H2AX/TRF1 colocalizations (TIF-positive) (BJ-EHLT fibroblasts [9]; 24 hrs, 0,5 μM) [%]
1 | CN1c2ccccc2-c2c3c1cccc3c1ccc(NC(=O)C3CC3)cc1[n+]2C [Compound 3] | 2.2e+07 | 100000 | 98 | 13 | 22,0 x10^6 M^−1 | 244,4 | 0,1 x10^6 M^−1 | 700 | 74 | 18,5 | 13 | about seven | about 18% | – | – | –
2 | CN1c2ccccc2-c2c3c1cccc3c1ccc(NC(=O)CCS(C)=O)cc1[n+]2C (stereo not drawn) | 2.3e+07 | < 100000 | – | – | – | – | – | – | – | – | – | – | – | – | – | –
3 | CN1c2ccccc2-c2c3c1cccc3c1ccc(NC(=O)CC[S+](C)[O-])cc1[n+]2C (stereo not drawn) [Compound 5] | – | – | 93 | 10 | 2.3e+07 M⁻¹ | >230 | <0,1 x10^6 M^−1 | 1830 | 16 | – | > 30 | – | – | – | – | –
4 | CN(C)CC#Cc1ccc2c3cccc4c3c([n+](C)c2c1)-c1ccccc1N4C [Compound 7] | 2.93e+07 | 900000 | 92 | 0 | 29,3 x10^6 M^−1 | 32,6 | 0,9 x10^6 M^−1 | 280 | 37 | 33,4 | 9.36 | – | – | did not cause significant telomere dysfunction | – | –
5 | Cc1cc2c3c([n+](C)c4ccc(F)cc4c3c1)-c1cc(F)ccc1N2C [Compound 1, 3,11-difluoro-6,8,13-trimethyl-8H-quino [4,3,2-kl] acridinium methosulfate, reference compound] | 9e+06 | 600000 | 98 | 100 | 9e+06 M⁻¹ | – | 600000 M⁻¹ | 620 | – | 11,6 | 7.2 | – | – | – | almost exclusively restricted to PCNA-positive | –
6 | C[n+]1c2c3c(cccc3c3ccccc31)Oc1ccccc1-2 [Compound 9] | 1.5e+06 | < 100000 | 24 | – | 1,5 x10^6 M^−1 | >15 | <0,1 x10^6 M^−1 | 210 | 86 | 24,3 | 5.11 | – | – | did not cause significant telomere dysfunction | – | –

The remaining molecules from weak to strong by GI50 [7], led by results:

Row | K [1] [M⁻¹] | K [2] [M⁻¹] | inhibition at 1 µM [3] [%] | inhibition at 1 µM [4] [%] | Quadruplex DNA affinity K [5] | Quadruplex/duplex ratio [5] | Duplex DNA affinity K [6] | GI50 [7] [nM] | Compound | inhibition at 10 µM (hERG) [%] | Ratio PMX WI38/HT29 [8] | GI50 [8] [µM] | mean TIFs per nucleus (BJ-EHLT fibroblasts [9]) | percentage of cells with more than four γ-H2AX/TRF1 colocalizations (TIF-positive) (BJ-EHLT fibroblasts [9]; 24 hrs, 0,1 μM) | telomere dysfunction (TIF formation), in words (BJ-EHLT fibroblasts [9]) | γ-H2AX foci formation relative to PCNA status (BJ-EHLT fibroblasts [10]) | percentage of cells with more than four γ-H2AX/TRF1 colocalizations (TIF-positive) (BJ-EHLT fibroblasts [9]; 24 hrs, 0,5 μM) [%]
7 | 7.4e+06 | 1.1e+06 | 65 | 1 | 7.4e+06 M⁻¹ | 6,7 | 1,1 x10^6 M^−1 | 1630 | CN1c2ccccc2-c2c3c1cccc3c1ccc(CN)cc1[n+]2C [Compound 4] | 15 | 10,6 | 17.3 | – | – | – | – | –
8 | 1.47e+07 | 700000 | 77 | 8 | 14,7 x10^6 M^−1 | 21 | 0,7 x10^6 M^−1 | 260 | CN1c2ccccc2-c2c3c1cccc3c1ccc(NC(=O)CO)cc1[n+]2C [Compound 6] | 35 | 85,7 | 22.3 | about seven | – | – | – | ~40
9 | 1e+06 | < 100000 | 49 | – | 1,0 x10^6 M^−1 | >10 | <0,1 x10^6 M^−1 | 130 | C[n+]1c2c3c(cccc3c3ccccc31)Sc1ccccc1-2 [Compound 10] | 95 | 47,5 | 6.17 | – | – | – | – | –
10 | 4.2e+06 | 200000 | 98 | 11 | 4.2e+06 M⁻¹ | 21 | 0,2 x10^6 M^−1 | 100 | COC(=O)c1ccc2c(c1)c1cccc3c1c([n+]2C)-c1ccccc1N3C [Compound 2] | 41 | 31,1 | 3.11 | – | – | did not cause significant telomere dysfunction | – | –
